Laboratory results: patent US11084795B2, “CFTR regulators and methods of use thereof” (The Regents of the University of California, priority 2015, dated 2021)
“Also recorded” adds a separate entry of the source.

Columns and labels:
[1] = system: cellular cAMP; test: GloSensor cAMP assay in FRT cells; format: cell-based, rat; settings: 5 μM compound, 10 min, without or with 100 nM forskolin
Protocol: Intracellular cAMP activity was measured using a GloSensor luminescence assay (Promega Corp., Madison, Wisconson, USA). FRT null cells were stably transfected with the pGloSensor cAMP plasmid and plated onto white 96-well microplates and grown to confluence. Cells were washed three times with PBS and incubated with 5 μM CFTRact-J027 for 10 min in the absence and presence of 100 nM forskolin. cAMP was assayed according to the manufacturer's instructions.
Intracellular cAMP activity was measured using a GloSensor luminescence assay (Promega Corp., Madison, Wis., USA). FRT cells stably transfected with the pGloSensor cAMP plasmid (Promega Corp.) were cultured in white 96-well microplates (Corning Costar) overnight. Cells were then washed three times with PBS and incubated with 5 μM test compound for 10 min in the absence and presence of 100 nM forskolin.
cAMP assay. Intracellular cAMP activity was measured using a GloSensor luminescence assay (Promega Corp., Madison, Wisconson, USA). FRT null cells were stably transfected with the pGloSensor cAMP plasmid and plated onto white 96-well microplates and grown to confluence. […]
cAMP and cytotoxicity assays. Intracellular cAMP activity was measured using a GloSensor luminescence assay (Promega Corp., Madison, Wis., USA). […]

[2] = system: intestinal fluid secretion; test: Closed mid-jejunal loop model of intestinal fluid secretion; format: in vivo, mouse; settings: 90 min
Protocol: Mice (wildtype or CF) were given access to 5% dextrose water but not solid food for 24 h before experiments. Mice were anesthetized with isoflurane and body temperature was maintained during surgery at 36-38° C. using a heating pad. A small abdominal incision was made to expose the small intestine, and closed mid-jejunal loops (length 2-3 cm) were isolated by sutures. Loops were injected with 100 μL vehicle alone or 100 μg CFTRact-J027 in vehicle. The abdominal incision was closed with sutures, and mice were allowed to recover from anesthesia. Intestinal loops were removed at 90 min and loop length and weight were measured to quantify fluid secretion. Intestinal absorption was measured in CF mice (to prevent secretion) as described above, except that the loops were removed at 0 or 30 min. Absorption was calculated as 1−(loop weight at 0 min−loop weight at 30 min)/loop weight at 0 min.
In vivo intestinal secretion and absorption. Mice (wildtype or CF) were given access to 5% dextrose water but not solid food for 24 h before experiments. […] Intestinal loops were removed at 90 min and loop length and weight were measured to quantify fluid secretion. Intestinal absorption was measured in CF mice (to prevent secretion) as described above, except that the loops were removed at 0 or 30 min. Absorption was calculated as 1−(loop weight at 0 min−loop weight at 30 min)/loop weight at 0 min. […]

[3] = system: FRT cells; test: Alamar Blue cytotoxicity assay in FRT cells; format: cell-based, rat
[4] = 7-day oral administration toxicity study in mice; format: in vivo, mouse
Source text: Chronic administration and toxicity studies.

[5] = system: tear fluid secretion; format: in vivo, mouse; settings: wild-type mice; B074 100 μM, J027 and K089 50 μM, VX-770 10 μM, cholera toxin 0.1 μg/mL, forskolin 20 μM, IBMX 250 μM
[6] = Compound accumulation in systemic tissues after 14 days topical dosing; format: in vivo, mouse; settings: two weeks of three times per day topical dosing
[7] = system: scopolamine-treated mice; test: Scopolamine-induced mouse model of acute constipation; format: in vivo
Protocol: Control mice were treated with vehicle only.

[8] = molecular target: human wildtype CFTR (Homo sapiens, UniProt P13569); test: Patch-clamp (whole-cell and inside-out) in FRT cells expressing human wildtype CFTR; format: cell-based; design: expressed in transfected cells
Source text: The pipette (intracellular) solution contained (in mM): 120 CsCl, 10 TEA-Cl, 0.5 EGTA, 1 MgCl2, 10 Cs-HEPES, 40 mannitol, 1 ATP (7.4). For inside-out patch-clamp experiments the pipette solution contained (in mM): 150 N-methyl-D-glucamine chloride (NMDG-Cl), 3 CaCl2, 2 MgCl2, 10 Na-Hepes (pH 7.3). […] Pipette electrical resistance for both whole-cell and inside-out experiments was 3-5 MΩ. The protocol for stimulation consisted of 600-ms voltage steps from −100 to +100 mV in 20 mV increments starting from a holding potential of −60 mV. The interval between steps was 4 s. Membrane currents were filtered at 1 kHz and digitized at 5 kHz. Data were analyzed using the Igor software (Wavemetrics, Portland, Oreg.) with custom software kindly provided by Dr. Oscar Moran.

[9] = 10 mg/kg orally once per day, 7 days, mean

human wildtype CFTR, sequence (P13569 whole entry): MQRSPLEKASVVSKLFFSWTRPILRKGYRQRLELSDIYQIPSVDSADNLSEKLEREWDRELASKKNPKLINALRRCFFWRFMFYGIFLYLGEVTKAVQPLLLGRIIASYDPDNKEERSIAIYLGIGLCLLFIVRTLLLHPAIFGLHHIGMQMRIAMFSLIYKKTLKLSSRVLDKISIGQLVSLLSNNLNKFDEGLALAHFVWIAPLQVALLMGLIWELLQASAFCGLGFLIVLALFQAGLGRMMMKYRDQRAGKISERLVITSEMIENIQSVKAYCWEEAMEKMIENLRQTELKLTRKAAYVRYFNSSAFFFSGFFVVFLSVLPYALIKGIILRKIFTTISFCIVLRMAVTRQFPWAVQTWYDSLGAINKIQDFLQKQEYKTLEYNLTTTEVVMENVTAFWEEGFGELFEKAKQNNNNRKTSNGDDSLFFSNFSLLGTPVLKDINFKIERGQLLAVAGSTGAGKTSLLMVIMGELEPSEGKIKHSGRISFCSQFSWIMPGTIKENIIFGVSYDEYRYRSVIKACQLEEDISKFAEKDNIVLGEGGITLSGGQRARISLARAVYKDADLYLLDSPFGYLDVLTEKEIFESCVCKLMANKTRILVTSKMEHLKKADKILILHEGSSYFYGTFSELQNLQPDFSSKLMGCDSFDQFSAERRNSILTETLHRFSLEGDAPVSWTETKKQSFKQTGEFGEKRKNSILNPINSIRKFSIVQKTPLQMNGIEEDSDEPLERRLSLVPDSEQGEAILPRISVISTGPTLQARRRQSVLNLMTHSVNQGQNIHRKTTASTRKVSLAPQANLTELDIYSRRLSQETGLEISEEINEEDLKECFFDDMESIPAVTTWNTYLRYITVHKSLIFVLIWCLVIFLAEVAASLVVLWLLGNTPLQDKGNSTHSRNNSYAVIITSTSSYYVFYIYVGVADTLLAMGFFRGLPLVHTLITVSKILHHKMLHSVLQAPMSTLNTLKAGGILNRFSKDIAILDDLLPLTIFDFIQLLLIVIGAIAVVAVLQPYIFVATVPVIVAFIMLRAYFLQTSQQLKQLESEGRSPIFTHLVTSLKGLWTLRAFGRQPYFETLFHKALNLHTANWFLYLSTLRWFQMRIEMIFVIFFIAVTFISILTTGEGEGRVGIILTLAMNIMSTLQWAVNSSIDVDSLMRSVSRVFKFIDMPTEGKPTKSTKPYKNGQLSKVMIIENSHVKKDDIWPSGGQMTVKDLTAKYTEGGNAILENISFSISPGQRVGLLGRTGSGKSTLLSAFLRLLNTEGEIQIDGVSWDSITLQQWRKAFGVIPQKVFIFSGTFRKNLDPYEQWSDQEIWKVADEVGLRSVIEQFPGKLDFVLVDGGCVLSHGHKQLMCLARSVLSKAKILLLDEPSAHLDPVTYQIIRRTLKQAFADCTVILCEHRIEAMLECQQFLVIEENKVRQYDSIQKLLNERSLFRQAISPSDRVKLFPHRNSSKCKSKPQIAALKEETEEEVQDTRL

Which “effect on cellular cAMP” value [1] does the source give for Nc1ccc([N+](=O)[O-])cc1-c1nc2ccccc2n(Cc2ccccc2)c1=O [CFTRact-J027, 3-(2-amino-5-nitrophenyl)-1-benzylquinoxalin-2(1H)-one] here?
Its value is “without causing elevation of cytoplasmic cAMP; also recorded: does not elevate cellular cAMP”.

And the “intestinal fluid accumulation compared to equal doses of lubiprostone or linaclotide” value ([2]; 100 μg per loop)?
The value was “Significantly greater intestinal fluid accumulation”.

And the “loop fluid secretion in cystic fibrosis mice” value ([2]; cystic fibrosis mice)?
The value was “without effect”.

And the “cytotoxicity (Alamar Blue)” value ([3]; 20 μM)?
The value was “did not show cytotoxicity”.

What about the in vitro cytotoxicity ([3]; 25 μM) of the same molecule?
The in vitro cytotoxicity was “did not show significant in vitro cytotoxicity”.

What about the “non-cytotoxic concentration relative to EC50 for CFTR activation” value ([3]; 25 μM) of the same molecule?
Its value is > 100 fold.

What about the in vitro cytotoxicity ([3]; up to 100 μM, 1 or 24 h) of the same molecule?
The in vitro cytotoxicity was “no appreciable in vitro cytotoxicity”.

And the “toxicity after chronic administration” value ([4]; 10 mg/kg oral)?
Its value is “without apparent toxicity”.

What about the ALP [4, 9] of the same molecule?
Its ALP is 53 U/L.

And the ALT [4, 9]?
Its ALT is 44 U/L.

What about the AST [4, 9] of the same molecule?
Its AST is 105 U/L.

What about the Albumin [4, 9] of the same molecule?
Its Albumin is 2.9 g/dL.

What about the BUN [4, 9] of the same molecule?
The BUN was 18.4 mg/dL.

And the Bicarbonate [4, 9]?
The Bicarbonate was 16 mmol/L.

And the CK [4, 9]?
The CK was 312 U/L.

What about the Calcium [4, 9] of the same molecule?
Its Calcium is 8.5 mg/dL.

And the Chloride [4, 9]?
Its Chloride is 115 mmol/L.

What about the Cholesterol [4, 9] of the same molecule?
Its Cholesterol is 121 mg/dL.

And the Creatinine [4, 9]?
Its Creatinine is 0.2 mg/dL.

And the Globulin [4, 9]?
Its Globulin is 2.2 g/dL.

And the Glucose [4, 9]?
The Glucose was 164 mg/dL.

What about the Hemoglobin [4, 9] of the same molecule?
The Hemoglobin was 12.8 g/dL.

What about the Leukocytes [4, 9] of the same molecule?
The Leukocytes was 1.9 ± 10^3/μL.

What about the Phosphorus [4, 9] of the same molecule?
Its Phosphorus is 6.8 mg/dL.

And the Potassium [4, 9]?
Its Potassium is 4.4 mmol/L.

And the Sodium [4, 9]?
The Sodium was 151 mmol/L.

What about the Thrombocytes [4, 9] of the same molecule?
The Thrombocytes was 900 ± 10^3/μL.

And the Total bilirubin [4, 9]?
Its Total bilirubin is 0.1 mg/dL.

What about the Total protein [4, 9] of the same molecule?
The Total protein was 5.2 g/dL.

And the lung water content ([4]; 7-day treated mice)?
The lung water content was “normal lung water content”.

And the “major serum chemistry and blood parameters” value ([4]; 7-day treated mice)?
Its value is “did not affect the major serum chemistry and blood parameters”.

And the “body weight and airway/lung fluid accumulation” value ([4]; 7-day treated mice, 10 mg/kg oral)?
Its value is “nor did it change body weight or produce airway/lung fluid accumulation”.

And the “tear fluid secretion after single topical dose” value [5]?
Its value is “increased tear fluid secretion by approximately two-fold for at least four hours”.

What about the “amount in mouse blood, brain, liver and kidney (limit of detection)” value [6] of the same molecule?
Its value is < 700 fmol.

And the “efficacy, ip after development of constipation” value ([7]; 10 mg/kg ip 1 h after loperamide or scopolamine)?
Its value is “effective”.

And the “stool parameters, oral 1 h prior to scopolamine” value ([7]; 10 mg/kg po)?
Its value is “normalization of stool parameters”.

And the “efficacy, oral after development of constipation” value ([7]; 10 mg/kg po 1 h after loperamide or scopolamine)?
The value was “not effective”.

And the “stool output, pellet number and water content compared to lubiprostone and linaclotide” value ([7]; J027 10 mg/kg vs 0.5 mg/kg comparators, oral)?
The value was “more effective in increasing stool output, pellet number and water content”.

What about the “increase of CFTR activity, whole-cell recording” value ([8]; 1 μM after 150 nM forskolin) of the same molecule?
The value was “more than four-fold”.

What about the “CFTR activity, inside-out patch” value ([8]; 1 μM after submaximal ATP and catalytic subunit of PKA) of the same molecule?
The value was “strongly increased CFTR activity”.
